This is an account of results in ChEMBL document CHEMBL1132133, “Synthesis and biological activity of a novel series of indole-derived PPARgamma agonists” (Bioorg Med Chem Lett, 1999).

One may read the EC50 as the concentration that produces a half-maximal response. A low value points to greater potency. For orientation: Ki means a dissociation constant, usually derived from enzyme kinetics or from competition with a known ligand. As a reminder, the half-life is the time in which the quantity being followed falls by half. One may read the IC50 as the concentration that inhibits the measured activity by half. Read a high IC50 as a need for much substance. The term bioavailability denotes the share of a dose that reaches the circulation, judged against a reference dose that is usually intravenous. Lower therefore signals little systemic uptake.

Each structure is given as a SMILES string. Active and inactive are the calls of the source. The rule behind the calls is not given here.

The target in series [1] is T1, Peroxisome proliferator-activated receptor gamma (Homo sapiens, UniProt P37231).
T1 sequence (P37231 whole entry): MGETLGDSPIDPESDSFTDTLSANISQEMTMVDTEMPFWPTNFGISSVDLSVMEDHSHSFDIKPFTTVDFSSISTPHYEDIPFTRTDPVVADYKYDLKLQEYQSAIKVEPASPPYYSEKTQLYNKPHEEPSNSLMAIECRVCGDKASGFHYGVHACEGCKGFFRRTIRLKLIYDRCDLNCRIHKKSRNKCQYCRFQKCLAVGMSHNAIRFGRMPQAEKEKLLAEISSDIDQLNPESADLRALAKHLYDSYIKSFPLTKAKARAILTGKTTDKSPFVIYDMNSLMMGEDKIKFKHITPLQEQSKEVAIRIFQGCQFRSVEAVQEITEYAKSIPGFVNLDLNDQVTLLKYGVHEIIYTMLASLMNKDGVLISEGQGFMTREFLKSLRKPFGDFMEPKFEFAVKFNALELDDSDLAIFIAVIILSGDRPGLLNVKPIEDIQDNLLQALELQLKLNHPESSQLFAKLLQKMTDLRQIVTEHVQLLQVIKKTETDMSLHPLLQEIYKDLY

The target of series [2] is T2, Peroxisome proliferator-activated receptor delta (Homo sapiens, UniProt Q03181).
T2 sequence (Q03181 whole entry): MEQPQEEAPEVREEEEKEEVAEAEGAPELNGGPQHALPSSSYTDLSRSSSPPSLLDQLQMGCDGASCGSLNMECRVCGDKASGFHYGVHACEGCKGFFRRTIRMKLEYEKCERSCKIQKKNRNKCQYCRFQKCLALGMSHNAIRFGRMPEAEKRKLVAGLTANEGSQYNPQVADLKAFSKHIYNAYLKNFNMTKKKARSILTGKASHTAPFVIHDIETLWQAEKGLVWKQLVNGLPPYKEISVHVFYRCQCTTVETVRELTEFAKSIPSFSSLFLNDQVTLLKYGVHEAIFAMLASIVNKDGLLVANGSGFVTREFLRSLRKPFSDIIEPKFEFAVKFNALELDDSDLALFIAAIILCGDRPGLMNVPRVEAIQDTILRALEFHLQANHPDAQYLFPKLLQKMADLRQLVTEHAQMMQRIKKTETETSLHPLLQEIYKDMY

The target of series [3] is T3, Peroxisome proliferator-activated receptor alpha (Homo sapiens, UniProt Q07869).
T3 sequence (Q07869 whole entry): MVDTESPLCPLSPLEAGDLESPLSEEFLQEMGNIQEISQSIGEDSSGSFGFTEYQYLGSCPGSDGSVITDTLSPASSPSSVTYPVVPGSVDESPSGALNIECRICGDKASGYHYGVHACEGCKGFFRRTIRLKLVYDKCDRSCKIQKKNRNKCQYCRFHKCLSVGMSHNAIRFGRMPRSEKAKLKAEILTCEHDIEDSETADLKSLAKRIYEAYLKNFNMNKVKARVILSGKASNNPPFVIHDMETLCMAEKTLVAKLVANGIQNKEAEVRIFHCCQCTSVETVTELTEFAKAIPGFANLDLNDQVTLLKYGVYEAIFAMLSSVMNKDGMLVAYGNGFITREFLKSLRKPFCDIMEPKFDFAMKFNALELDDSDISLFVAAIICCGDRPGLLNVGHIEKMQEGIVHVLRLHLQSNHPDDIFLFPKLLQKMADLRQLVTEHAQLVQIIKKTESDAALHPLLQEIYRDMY
The series is described as follows: Binding affinity against Peroxisome Proliferator activated receptor alpha (PPAR alpha); Not active.

For series [4], the target named is T1, Peroxisome proliferator-activated receptor gamma. The source holds these as a separate data set.
Series [5] addresses T4, Peroxisome proliferator-activated receptor gamma (Homo sapiens) (UniProt P37231).
T4 sequence (whole entry): T1 sequence (P37231 whole entry)
As to the kind of experiment: Binding affinity against Peroxisome proliferator activated receptor gamma (PPAR gamma); Inactive at 10e-4 M.

Series [6] in a line: Pharmacokinetic property (total body clearance) in rat. The series is classed as ADME, organism-based. Conditions: in vivo, read-out: CLtotal.
The target in series [7] is T1, Peroxisome proliferator-activated receptor gamma. The series is described as follows: Binding affinity against human Peroxisome proliferator activated receptor gamma (PPAR gamma).
Series [8] is described as follows: Pharmacokinetic property (half life) in rat. The series is classed as ADME, organism-based. Conditions: in vivo.
The target in series [9] is T1, Peroxisome proliferator-activated receptor gamma. The series is described as follows: Inhibitory concentration of the PPAR gamma).
The nature of series [10]: Pharmacokinetic property (oral bioavailability) in rat (dose given as a suspension). It counts as ADME, organism-based. Conditions: in vivo.
Series [11] in a line: Pharmacokinetic property (oral bioavailability) in rat (dose given as a solution). It counts as ADME, organism-based. Conditions: in vivo.
Series [12] concerns the target T4, Peroxisome proliferator-activated receptor gamma (Homo sapiens). As to the kind of experiment: Transcriptional activation of peroxisome proliferator activated receptor gamma activity; Inactive at 10e-4 M. The series is classed as functional.

Take `O=C(O)Cc1ccc2[nH]c(-c3ccccc3)c(CCc3ccccc3)c2c1`: the EC50 in series [1] was 309 nM. Moreover, the inhibition constant (Ki) result in [2] and in series [3] was “Not Active” in each case.

Consider `O=C(O)Cc1ccc2[nH]cc(CCc3ccccc3)c2c1`, for which the Ki in series [4] is over 10000 nM; in [2], “Not Active”; in [3], “Not Active”. The same compound showed a concentration for a half-maximal effect (EC50) in [1] of over 10000 nM.

For `CCCc1c(-c2ccccc2)[nH]c2ccc(C(=O)O)cc12`, the EC50 in [1] is over 10000 nM. For the same compound, the inhibitory constant (Ki) entry in [2] and in series [3] was “Not Active” each time.

The compound `O=C(O)Cc1ccc2[nH]c(-c3ccccc3)c(Cc3ccccc3)c2c1` came in with an EC50 in [1] of over 10000 nM. Also, the Ki entry in series [2] and in series [3] was “Not Active” in each case. Moreover, the “Log Ki” value in series [5] is “inactive”.

`O=C(O)Cc1ccc2[nH]c(-c3ccccc3)c(-c3ccccc3)c2c1`: the figures for the Ki in [4], in [2] and in series [3] were over 10000 nM, “Not Active” and “Not Active”, respectively. Moreover, the EC50 in series [1] is over 10000 nM.

Turning to `O=C(O)Cc1ccc2[nH]c(-c3ccc(F)cc3)c(CCc3ccc(F)cc3)c2c1`, the inhibitory constant (Ki) is 490 nM in [4], “Not Active” in series [2] and “Not Active” in series [3]. The same compound gave an EC50 in [1] of 339 nM.

With `COc1ccc(CCc2c(-c3ccccc3)[nH]c3ccc(CC(=O)O)cc23)cc1`, the inhibition constant (Ki) in series [4] is 47.9 nM; in [2], “Not Active”; in series [7] it was 50 nM; in series [3], “Not Active”. In [1], this compound gave an EC50 of 43.7 nM. In addition, in series [6], the clearance stood at 3 mL/min/kg. This compound had a half-life in series [8] of 3.8 h. In series [9], the half-inhibitory concentration (IC50) is 50 nM. Moreover, the figures for the bioavailability in [10] and in series [11] were 73% and 78%, respectively.

Regarding `O=C(O)Cc1ccc2[nH]c(-c3ccccc3)cc2c1`, the “Log EC50” value in series [12] is “inactive”. The inhibition constant (Ki) entry in series [2] and in series [3] was “Not Active” each time.

With `O=C(O)CCc1ccc2[nH]c(-c3ccccc3)c(CCc3ccccc3)c2c1`, the midpoint of the response in series [1], the EC50, lay at 3020 nM. The inhibition constant Ki entry in series [2] and in series [3] was “Not Active” throughout.

With `CN(CCOc1ccc(CC2SC(=O)NC2=O)cc1)c1ccccn1` (stereo unspecified) [ROSIGLITAZONE], the Ki result in [3] is listed as “Not Active”.

With `CCc1ccc(CCOc2ccc(CC3SC(=O)NC3=O)cc2)nc1` (stereo unspecified) [PIOGLITAZONE], the Ki result in series [2] and in series [3] was “Not Active” in each case.

In series [1], `Cn1c(-c2ccccc2)c(CCc2ccccc2)c2cc(OCC(=O)O)ccc21` had an EC50 of over 10000 nM. In addition, the inhibition constant (Ki) result in [2] and in [3] was “Not Active” throughout.

For the compound `O=C1CSC(=O)N1Cc1ccc2[nH]c(-c3ccccc3)c(CCc3ccccc3)c2c1`, the concentration for a half-maximal effect (EC50) in series [1] is over 10000 nM. The inhibitory constant (Ki) result in [2] and in [3] was “Not Active” throughout.

For `CCCc1c(-c2ccccc2)[nH]c2ccc(CC(=O)O)cc12`, in [1], the EC50 is 7080 nM. The Ki result in series [2] and in [3] was “Not Active” in each case.

Regarding `Cc1c(C)c2c(c(C)c1O)CCC(C)(COc1ccc(CC3SC(=O)NC3=O)cc1)O2` (stereo unspecified) [TROGLITAZONE], the inhibition constant Ki result in [2] and in series [3] was “Not Active” each time.

Consider `Cn1c(-c2ccccc2)c(CCc2ccccc2)c2cc(CC(=O)O)ccc21`, for which the Ki is 550 nM in [4], “Not Active” in series [2] and “Not Active” in [3]. In [1], this compound had an EC50 of 5620 nM.
